“And” between values parts separate entries of the source, which are not always exact repeats. Identical values can stand only once.

Assay [1] concerns the target T1, PTPN2 (Homo sapiens, UniProt P17706).
T1 construct: PTPN2, residues 1-387; made in house; host or cells: E. coli BL21(DE3)
T1 sequence (P17706 1-387 isoform P17706-2): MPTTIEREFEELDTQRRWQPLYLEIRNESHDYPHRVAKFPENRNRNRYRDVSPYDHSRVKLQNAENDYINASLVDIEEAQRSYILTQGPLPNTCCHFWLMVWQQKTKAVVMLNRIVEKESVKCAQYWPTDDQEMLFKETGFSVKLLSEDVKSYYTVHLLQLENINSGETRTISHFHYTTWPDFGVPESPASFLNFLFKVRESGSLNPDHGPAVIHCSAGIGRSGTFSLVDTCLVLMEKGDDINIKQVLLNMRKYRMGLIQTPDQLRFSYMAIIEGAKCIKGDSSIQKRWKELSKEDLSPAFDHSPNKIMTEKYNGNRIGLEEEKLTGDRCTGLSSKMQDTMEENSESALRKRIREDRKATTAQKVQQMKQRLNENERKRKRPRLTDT
In words: Mode of inhibition and Ki, Lineweaver-Burk kinetic analysis with DiFMUP. Format: biochemical. As for the experimental part: To determine the mode of inhibition, the reactions were initiated by the addition of enzyme (final concentration for PTP1B and PTPN2 was 0.05 nM) to the reaction mixtures (0.2 ml) containing various concentrations of DiFMUP with different concentrations of the inhibitor. The reaction was allowed to proceed for 10 min and then quenched by the addition of 40 µl of a 160 µM solution of bpV(Phen) (Sigma-Aldrich, cat# SML0889). The fluorescence signal was measured using a CLARIOstar Plus Microplate Spectrophotometer (BMG Labtech) using excitation and emission wavelength of 340 nm and 450 nm, respectively. Data were fitted using Prism GraphPad 9.2.0. For selectivity studies, the inhibition assay for other PTPs were performed under the same conditions as used for PTP1B and PTPN2 except with different DiFMUP concentration corresponding to the Km of the PTP studied.

In a further assay the test system is AT3-OVA mammary tumors. In words: Tumor-infiltrating lymphocytes in AT3-OVA tumors of Lck-Cre;Ptpn2fl/fl mice. Also noted: NK cells / Tregs / MDSCs / CD4 EM / CD8 EM / B cells / IFNg TNF / GRZMB: unit not given here. It is filed as in vivo, mouse. As for the experimental part: Tumor-bearing mice were sacrificed and tumors were excised and digested at 37 °C for 30 min using a cocktail of 1 mg/ml collagenase type IV (Worthington Biochemicals) and 0.02 mg/ml DNase I (Sigma-Aldrich) in DMEM supplemented with 2% (v/v) FBS. Cells were passed through a 70 μm cell strainer (BD Biosciences) twice and processed for flow cytometry. For assessing T cell activation, cells were surface stained with fluorophore-conjugated antibodies to CD62L, CD44, PD-1, and TIM-3. For the assessment of NK cells, B cells, myeloid-derived suppressor cells (MDSCs), dendritic cells (DCs), and tumor-associated macrophages, cells were surface stained with fluorophore-conjugated antibodies to NK1.1, TCRβ, CD19, CD11b, CD11c, F4/80, Ly6C and Ly6G. For the detection of intracellular cytokines TNF and IFNγ, T cells were stimulated with PMA (20 ng/ml; Sigma-Aldrich) and ionomycin (1 μg/ml; Sigma-Aldrich) in the presence of GolgiPlug™ and GolgiStop™ (BD Biosciences) for 4 h at 37 °C in complete T cell medium. For the intracellular detection of granzyme B, cells were processed untreated without the addition of BD GolgiPlug™ and BD GolgiStop™.

For assay [2], the target named is T1, PTPN2. In words: PTP inhibition assay with DiFMUP substrate (IC50). It is filed as biochemical. Here is the method:
E. coli BL21(DE3) (Novagen) was used as an expression host and the induction of protein expression was carried out in LB media with 1 mM IPTG at 18 °C overnight. Cell pellets were stored at −80 °C for subsequent protein purification.
Protein purification of PTPs for enzymatic assays was conducted at 4 °C. Frozen cell pellets were lysed by sonication in 40 ml cold lysis buffer (50 mM Tris-HCl, pH 8.0, 150 mM NaCl, 5 mM imidazole, and 1 mM PMSF) per litre cell pellet. Cell lysates were clarified by centrifugation using a Beckman JA-18 rotor for 15 min at 5308 x g. The supernatant was incubated with HisPur Ni-NTA resin (Thermo Scientific) for 2 h and then packed onto a column and washed with 50 resin volume of buffer A (50 mM Tris-HCl, pH 8.0, 500 mM NaCl, 5 mM imidazole). The His-tagged proteins were eluted with Buffer B (50 mM Tris-HCl, pH=8.0, 500 mM NaCl, 300 mM imidazole,). Pooled His-protein-containing fractions were concentrated, loaded onto a HiLoad 26/600 Superdex 75 column (GE Healthcare Biosciences) and eluted with storage buffer (50 mM Tris-HCl, pH 8.0, 150 mM NaCl, 1 mM DTT, 10% glycerol). […] The protein was aliquoted and stored at −80 °C.
The PTP kinetic assay was modified from previous reported protocols[73],[74]. […] The fluorescence signal was measured using a CLARIOstar Plus Microplate Spectrophotometer (BMG Labtech) using excitation and emission wavelengths of 340 nm and 450 nm, respectively. […]
To determine the mode of inhibition, the reactions were initiated by the addition of enzyme (final concentration for PTP1B and PTPN2 was 0.05 nM) to the reaction mixtures (0.2 ml) containing various concentrations of DiFMUP with different concentrations of the inhibitor. […] The fluorescence signal was measured using a CLARIOstar Plus Microplate Spectrophotometer (BMG Labtech) using excitation and emission wavelength of 340 nm and 450 nm, respectively. […]

The mark [3] stands for this setting: Lck-Cre;Ptpn2fl/fl mice, individual mice (Figure 7D), listed as CMP-182.
Setting [4] is: tumour-infiltrating cells, Lck-Cre;Ptpn2fl/fl mice n=6, individual mice (Figure 7C), listed as CMP-182.

In general, Ki refers to a dissociation constant, usually derived from enzyme kinetics or from competition with a known ligand. A word on the IC50: it is the concentration at which inhibition is half-maximal. As to `CC(C)(O)CCOc1ccc2cc(O)c(N3CC(=O)NS3(=O)=O)c(F)c2c1` [Compound 182, 5-(1-Fluoro-3-hydroxy-7-(3-hydroxy-3-methylbutoxy)naphthalen-2-yl)−1,2,5-thiadiazolidin-3-one 1,1-dioxide], the mode of inhibition entry on PTPN2 [1] (Lineweaver-Burk) is given as “classic competitive inhibitor”. Moreover, the inhibition constant Ki at PTPN2 [1] (varying inhibitor and DiFMUP, steady state) is 0.26 ± 0.02 nM. Moreover, the “IFNγ+TNF+ infiltrating CD8+ T cells in Lck-Cre;Ptpn2fl/fl mice” value in the assay on AT3-OVA mammary tumors (10 mg/kg i.v.) is “significantly increased”. Besides, in the assay with AT3-OVA mammary tumors (setting [3]), the GRZMB is 75.7 and 29.8 and 80.2 and 60 and 76.3 and 38.3; the “IFNg TNF” value was 26.1 and 36.3 and 38 and 37.5 and 35.3 and 36.7. Also, the “TILs in AT3-OVA tumors of Lck-Cre;Ptpn2fl/fl mice” value in the assay on AT3-OVA mammary tumors (compared with untreated Lck-Cre;Ptpn2fl/fl mice) is “not accompanied by any significant changes”. Also, in the assay on AT3-OVA mammary tumors (setting [4]), the B cells is 170392 and 46995.6 and 105275 and 126695 and 155871 and 80840.6; the “CD4 EM” value is 52213.7 and 43853.2 and 131869 and 64047.3 and 133510 and 49758.5; the “CD8 EM” value was 137803 and 79204.9 and 701666 and 167038 and 463610 and 106200; the MDSCs was 220000 and 235417 and 32287.6 and 56721.3 and 90563.2 and 25765.3. In the assay with AT3-OVA mammary tumors (setting [4]), the NK cells is 58097.7 and 15907.7 and 22173.4 and 86915 and 66469.7 and 20906.1; the Tregs was 31347.8 and 26539.2 and 15097.8 and 25883.4 and 26206.9 and 21641.1. This compound gave an IC50 against PTPN2 [2] (DiFMUP 10 μM as substrate) of 0.58 ± 0.02 nM. The same compound registered an IC50 on PTPN2 [2] (TC-PTP, DiFMUP 10 μM, pH 7.0, 25 °C) of 0.58 ± 0.02 nM.

(Values after article PMC10374545, “A small molecule inhibitor of PTP1B and PTPN2 enhances T cell anti-tumor immunity” (Nature Communications, 2023).)
